Activity calls are given as the source filed them.
Legend:
INS1 = assay: INS-1E survival protection against cytokine death – cell-based, luminescence, retest, dose response (AID 449756); type: functional; conditions: Rattus norvegicus;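 note: cell death triggered by IL-1 beta plus TNF-alpha plus IFN-gamma mixture; protective hits raise ATP signal compared with cytokine alone wells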
[1] = target: 5-hydroxytryptamine receptor 2A (Mus musculus, UniProt P35363); type: functional, cell-based;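 note: CHO-K1 cells with tagged receptor and beta-arrestin; agonist potency measured as compound-induced activation of the receptor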
Chain of 5-hydroxytryptamine receptor 2A (P35363 whole entry): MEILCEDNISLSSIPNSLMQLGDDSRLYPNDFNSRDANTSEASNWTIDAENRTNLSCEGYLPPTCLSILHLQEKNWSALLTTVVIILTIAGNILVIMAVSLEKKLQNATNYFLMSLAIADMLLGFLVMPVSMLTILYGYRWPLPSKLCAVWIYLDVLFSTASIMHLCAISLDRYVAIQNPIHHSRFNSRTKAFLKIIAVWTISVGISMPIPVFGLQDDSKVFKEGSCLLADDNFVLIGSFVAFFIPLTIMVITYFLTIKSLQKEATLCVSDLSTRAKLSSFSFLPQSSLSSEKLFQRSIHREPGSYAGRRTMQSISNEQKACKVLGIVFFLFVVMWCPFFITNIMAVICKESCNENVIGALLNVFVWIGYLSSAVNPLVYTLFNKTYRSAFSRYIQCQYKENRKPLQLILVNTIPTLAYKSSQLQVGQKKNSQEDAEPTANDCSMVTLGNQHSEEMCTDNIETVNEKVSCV

Mu-type opioid receptor = Mu-type opioid receptor (Homo sapiens, UniProt P35372); type: functional, cell-based;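 note: U2OS cells with beta-arrestin recruitment to OPRM1 by beta-gal complementation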
Chain of Mu-type opioid receptor (P35372 whole entry, the tested form may be a part): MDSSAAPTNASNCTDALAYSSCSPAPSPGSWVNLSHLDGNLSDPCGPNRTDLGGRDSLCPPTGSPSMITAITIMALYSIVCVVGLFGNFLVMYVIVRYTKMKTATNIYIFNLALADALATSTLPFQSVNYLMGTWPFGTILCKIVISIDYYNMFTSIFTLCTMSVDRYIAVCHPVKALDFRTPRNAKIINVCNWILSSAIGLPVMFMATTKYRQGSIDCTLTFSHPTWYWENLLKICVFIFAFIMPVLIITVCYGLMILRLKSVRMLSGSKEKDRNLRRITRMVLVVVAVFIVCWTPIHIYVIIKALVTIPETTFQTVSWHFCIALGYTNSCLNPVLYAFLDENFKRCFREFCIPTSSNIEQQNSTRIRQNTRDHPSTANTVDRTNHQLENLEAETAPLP

[2] = off-target signal loss in HeLa-CEM21 co-culture – HeLa F-luc CTL cells, cherry-picked, counter-screen for HIV-1 Env fusion inhibitor project, dose response (AID 652040); type: functional, cell-based;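 note: potency for signal decrease marking cytotoxic or nonspecific inhibition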
[3] = blockers of HIV-1 ZM109 envelope-driven cell-cell fusion – HeLa effector, CEM target cells, luciferase, cherry-pick, dose response (AID 652058); type: functional, cell-based;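 note: luciferase signal from HIV-1 Env mediated cell-cell fusion of effector and target cells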
[4] = blockers of HIV-1 envelope-mediated cell-cell fusion – cherry-pick, dose response (AID 652057); type: functional, cell-based
[5] = HIV-1 AD8 envelope cell-cell fusion blockers – cherry-pick, dose response (AID 652062); type: functional, cell-based;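 note: luciferase signal from cell-cell fusion driven by HIV-1 clade B AD8 Env; potency is for inhibitors of fusion seen as a drop in luminescence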
[6] = viability loss in CEM21 cells – cell-based, CellTiter-Glo luminescence, cherry-picked, cytotoxicity control for viral fusion inhibitor project, dose response (AID 652042); type: functional;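 note: potency for signal decrease meaning cytotoxicity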
cells [7] = type: functional, cell-based
cells [8] = type: functional, cell-based; remark: listed apart in the source
[9] = target: DNA repair and recombination protein RAD54-like (Homo sapiens, UniProt Q92698); assay: RAD54 Holliday junction migration blockers – biochemical, fluorescence, cherry-picked samples, dose series, confirmation (AID 651657); type: functional
Chain of DNA repair and recombination protein RAD54-like (Q92698 whole entry): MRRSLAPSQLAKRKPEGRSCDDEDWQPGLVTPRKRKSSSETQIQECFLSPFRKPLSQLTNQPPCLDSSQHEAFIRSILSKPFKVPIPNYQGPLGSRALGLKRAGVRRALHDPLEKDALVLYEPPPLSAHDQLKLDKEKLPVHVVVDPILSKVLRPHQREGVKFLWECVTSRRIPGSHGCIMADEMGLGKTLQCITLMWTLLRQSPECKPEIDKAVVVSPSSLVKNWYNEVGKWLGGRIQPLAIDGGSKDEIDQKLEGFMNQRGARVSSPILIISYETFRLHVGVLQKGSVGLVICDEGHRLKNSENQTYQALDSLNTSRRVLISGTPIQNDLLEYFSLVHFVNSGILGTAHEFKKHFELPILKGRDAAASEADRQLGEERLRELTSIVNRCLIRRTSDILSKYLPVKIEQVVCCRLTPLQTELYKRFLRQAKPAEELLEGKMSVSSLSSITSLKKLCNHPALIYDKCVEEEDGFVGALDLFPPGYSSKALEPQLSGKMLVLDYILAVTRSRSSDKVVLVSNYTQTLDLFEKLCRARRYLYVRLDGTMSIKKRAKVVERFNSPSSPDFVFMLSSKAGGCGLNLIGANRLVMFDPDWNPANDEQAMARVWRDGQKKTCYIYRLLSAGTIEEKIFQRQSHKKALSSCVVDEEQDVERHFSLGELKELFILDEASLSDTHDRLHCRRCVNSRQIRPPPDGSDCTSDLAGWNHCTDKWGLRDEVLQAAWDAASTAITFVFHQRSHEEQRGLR

Beta-lactamase [10] = target: T1, Beta-lactamase (Pseudomonas aeruginosa, UniProt Q79MP6); assay: […] counterscreen for selective VIM-2 inhibitors: dose response biochemical high throughput screening assay to identify inhibitors of IMP-1 metallo-beta-lactamase.
T1 sequence (Q79MP6 whole entry): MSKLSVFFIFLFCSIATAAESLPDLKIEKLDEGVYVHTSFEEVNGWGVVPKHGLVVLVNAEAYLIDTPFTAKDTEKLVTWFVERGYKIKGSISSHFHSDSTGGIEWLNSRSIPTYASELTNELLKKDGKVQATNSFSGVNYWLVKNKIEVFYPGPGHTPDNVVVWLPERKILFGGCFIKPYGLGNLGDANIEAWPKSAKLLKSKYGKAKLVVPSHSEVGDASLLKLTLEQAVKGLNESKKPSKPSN

Beta-lactamase [11] = target: Beta-lactamase (Salmonella choleraesuis (strain SC-B67), UniProt Q5J463); assay: Epi-absorbance-based counterscreen for selective VIM-2 inhibitors: dose response biochemical high throughput screening assay to identify inhibitors of TEM-1 serine-beta-lactamase.
Chain of Beta-lactamase (Salmonella choleraesuis (strain SC-B67), UniProt Q5J463) (Q5J463 whole entry): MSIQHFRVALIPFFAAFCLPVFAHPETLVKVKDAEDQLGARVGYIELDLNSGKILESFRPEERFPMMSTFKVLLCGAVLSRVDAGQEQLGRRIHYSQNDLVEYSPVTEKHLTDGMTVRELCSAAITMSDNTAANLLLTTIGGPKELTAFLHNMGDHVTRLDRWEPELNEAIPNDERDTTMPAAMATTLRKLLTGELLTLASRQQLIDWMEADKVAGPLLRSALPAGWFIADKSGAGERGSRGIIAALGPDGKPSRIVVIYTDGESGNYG

Beta-lactamase [12] = target: T1, Beta-lactamase; assay: inhibition of IMP-1 beta-lactamase activity – biochemical, epi-absorbance, selectivity assay for VIM-2 inhibitor project, dose response (AID 1920)
[13] = blockers of bursicon-stimulated LGR2 cAMP reporter – cell-based, HEK293, CRE-luciferase reporter, cherry pick, set 2, dose response (AID 743343); type: functional;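 note: transfected cells were stimulated with diluted bursicon conditioned medium after compound addition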
HEK293 = assay: EBV LMP1 TES2 canonical NF-kB signalling blockers – cell-based, HEK293, luciferase, cherry-pick, dose response (AID 588343); type: functional; conditions: Homo sapiens
[14] = blockade of melanocortin 4 receptor signaling – cell-based, plate reader, cherry pick, counter-screen for LGR2 antagonist project, dose response (AID 743444); type: functional;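 note: transfected HEK 293 cells stimulated with alpha-MSH peptide; potency of inhibitors of the alpha-MSH evoked signal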
[15] = target: T2, Nuclear receptor subfamily 0 group B member 1 (Homo sapiens, UniProt P51843); type: functional, cell-based;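 note: HEK293T cells transfected with SF-1 and DAX-1 plus StAR promoter luciferase reporter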
T2 sequence (P51843 whole entry): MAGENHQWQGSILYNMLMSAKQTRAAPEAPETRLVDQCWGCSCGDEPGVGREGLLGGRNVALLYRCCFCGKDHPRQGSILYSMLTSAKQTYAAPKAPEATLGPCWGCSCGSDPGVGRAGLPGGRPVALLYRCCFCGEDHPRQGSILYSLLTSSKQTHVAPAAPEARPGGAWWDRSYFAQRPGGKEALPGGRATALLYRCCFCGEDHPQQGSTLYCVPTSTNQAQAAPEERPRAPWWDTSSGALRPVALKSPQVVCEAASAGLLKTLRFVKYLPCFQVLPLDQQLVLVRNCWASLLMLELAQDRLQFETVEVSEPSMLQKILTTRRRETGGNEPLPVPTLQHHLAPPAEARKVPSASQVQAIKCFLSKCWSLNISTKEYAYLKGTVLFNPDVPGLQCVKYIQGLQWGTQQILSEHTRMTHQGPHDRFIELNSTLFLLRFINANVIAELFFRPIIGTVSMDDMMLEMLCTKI

[16] = luciferase reporter signal suppression in cells – H4 neuroglioma cells, luminescence, dose response (AID 1990); type: functional, cell-based
[17] = alpha-synuclein stem-loop luciferase translation blockers – H4 neuroglioma cells, luminescence, confirmation (AID 1988); type: functional, cell-based
cells [18] = type: functional, cell-based; remark: listed apart in the source
[19] = Luminescence Cell-Based Dose Response HTS to Identify Inhibitors of 5'UTR Stem-Loop Driven Prion Protein mRNA Translation in H4 Neuroglioblastoma Cells. [Related pubchem assays: 1827 (Project Summary), 1813 (Primary HTS)]; type: functional
[20] = target: T3, Histone-lysine N-methyltransferase NSD2 (Homo sapiens, UniProt O96028); type: biochemical
T3 sequence (O96028 whole entry): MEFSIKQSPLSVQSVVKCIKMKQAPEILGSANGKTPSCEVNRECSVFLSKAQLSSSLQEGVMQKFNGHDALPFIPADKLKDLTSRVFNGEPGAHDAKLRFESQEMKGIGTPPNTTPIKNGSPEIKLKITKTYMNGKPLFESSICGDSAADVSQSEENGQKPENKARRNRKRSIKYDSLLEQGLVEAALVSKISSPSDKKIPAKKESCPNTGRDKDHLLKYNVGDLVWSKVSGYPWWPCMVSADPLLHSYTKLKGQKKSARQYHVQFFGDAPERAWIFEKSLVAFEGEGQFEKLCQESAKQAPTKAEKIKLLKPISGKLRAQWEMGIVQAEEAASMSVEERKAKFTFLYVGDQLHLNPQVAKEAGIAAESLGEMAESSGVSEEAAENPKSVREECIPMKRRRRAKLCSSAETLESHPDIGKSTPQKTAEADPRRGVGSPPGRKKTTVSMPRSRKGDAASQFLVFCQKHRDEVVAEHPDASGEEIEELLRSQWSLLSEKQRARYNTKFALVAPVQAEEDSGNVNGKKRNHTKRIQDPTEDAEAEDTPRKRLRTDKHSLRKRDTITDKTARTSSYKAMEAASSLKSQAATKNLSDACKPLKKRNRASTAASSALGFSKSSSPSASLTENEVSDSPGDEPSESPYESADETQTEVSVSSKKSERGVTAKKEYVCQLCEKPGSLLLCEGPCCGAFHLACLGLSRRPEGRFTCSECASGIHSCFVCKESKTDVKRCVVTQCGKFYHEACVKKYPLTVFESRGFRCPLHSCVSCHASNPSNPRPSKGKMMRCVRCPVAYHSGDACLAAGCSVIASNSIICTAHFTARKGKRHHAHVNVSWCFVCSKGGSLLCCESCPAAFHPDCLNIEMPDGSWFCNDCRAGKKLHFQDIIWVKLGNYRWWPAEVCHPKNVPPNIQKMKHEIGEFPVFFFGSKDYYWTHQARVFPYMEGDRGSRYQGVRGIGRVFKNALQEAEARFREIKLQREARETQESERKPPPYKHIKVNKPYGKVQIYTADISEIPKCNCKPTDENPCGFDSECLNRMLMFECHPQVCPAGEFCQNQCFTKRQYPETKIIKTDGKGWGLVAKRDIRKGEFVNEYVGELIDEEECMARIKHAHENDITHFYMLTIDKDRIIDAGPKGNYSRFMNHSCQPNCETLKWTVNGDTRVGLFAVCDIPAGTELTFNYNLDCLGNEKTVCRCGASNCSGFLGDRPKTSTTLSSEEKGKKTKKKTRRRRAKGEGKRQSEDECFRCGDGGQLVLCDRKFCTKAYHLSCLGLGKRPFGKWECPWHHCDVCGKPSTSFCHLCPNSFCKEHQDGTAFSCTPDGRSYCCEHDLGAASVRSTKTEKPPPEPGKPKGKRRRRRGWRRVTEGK

[21] = target: T4, Sentrin-specific protease 8 (Homo sapiens, UniProt Q96LD8); type: functional
T4 sequence (Q96LD8 whole entry): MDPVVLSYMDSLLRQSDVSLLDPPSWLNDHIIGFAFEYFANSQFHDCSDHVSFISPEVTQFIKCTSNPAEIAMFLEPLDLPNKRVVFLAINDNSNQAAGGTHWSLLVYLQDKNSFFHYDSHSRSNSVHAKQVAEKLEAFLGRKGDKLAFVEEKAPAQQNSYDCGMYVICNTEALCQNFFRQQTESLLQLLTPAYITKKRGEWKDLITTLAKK

[22] = target: T4, Sentrin-specific protease 8; type: functional; remark: listed apart in the source
Beta-galactosidase = Beta-galactosidase (Escherichia coli, UniProt Q8VNN2); assay: Dose response counterscreen for EBI2 assay utilizing the enzyme, b-galactosidase.; type: functional
Chain of Beta-galactosidase (Q8VNN2 whole entry): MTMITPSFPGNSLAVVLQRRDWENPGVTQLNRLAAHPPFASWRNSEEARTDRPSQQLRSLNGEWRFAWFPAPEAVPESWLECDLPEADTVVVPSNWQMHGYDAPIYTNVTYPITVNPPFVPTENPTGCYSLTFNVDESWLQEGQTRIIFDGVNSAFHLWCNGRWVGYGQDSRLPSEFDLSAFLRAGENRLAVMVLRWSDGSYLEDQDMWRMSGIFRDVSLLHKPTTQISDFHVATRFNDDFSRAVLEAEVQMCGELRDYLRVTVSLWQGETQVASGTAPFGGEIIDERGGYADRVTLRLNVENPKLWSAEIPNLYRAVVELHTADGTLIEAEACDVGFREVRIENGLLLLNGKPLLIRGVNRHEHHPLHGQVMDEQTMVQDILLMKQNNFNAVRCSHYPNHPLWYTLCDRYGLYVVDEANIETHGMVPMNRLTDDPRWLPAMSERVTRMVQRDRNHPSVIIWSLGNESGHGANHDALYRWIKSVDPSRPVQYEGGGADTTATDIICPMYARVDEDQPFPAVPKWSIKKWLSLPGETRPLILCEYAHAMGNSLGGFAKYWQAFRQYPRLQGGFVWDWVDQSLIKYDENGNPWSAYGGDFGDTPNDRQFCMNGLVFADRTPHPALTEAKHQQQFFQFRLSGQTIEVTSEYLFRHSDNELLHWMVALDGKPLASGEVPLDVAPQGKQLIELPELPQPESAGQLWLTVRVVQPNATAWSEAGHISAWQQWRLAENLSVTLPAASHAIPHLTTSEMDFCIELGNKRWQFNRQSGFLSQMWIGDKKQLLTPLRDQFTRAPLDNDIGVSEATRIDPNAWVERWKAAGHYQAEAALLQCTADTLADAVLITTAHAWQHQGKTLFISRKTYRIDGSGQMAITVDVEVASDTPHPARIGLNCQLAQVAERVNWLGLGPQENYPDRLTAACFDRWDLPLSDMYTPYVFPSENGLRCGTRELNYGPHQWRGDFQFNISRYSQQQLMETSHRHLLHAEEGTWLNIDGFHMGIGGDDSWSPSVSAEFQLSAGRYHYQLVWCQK

[23] = NIH3T3 cell viability loss – ATP luminescence, mouse fibroblasts, counter-screen, dose response (AID 2010); type: functional, cell-based;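 note: cells exposed to compound for about 90 hours before reading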
[24] = Trypanosoma cruzi growth suppression in host cells – NIH3T3 host cells, beta-gal luminescence, confirmation (AID 2044); type: functional, cell-based;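 note: intracellular parasites grown in NIH/3T3 mouse fibroblasts as host cells; luminescent beta-galactosidase reporter signal from transgenic T. cruzi replicating inside host cells; inhibitors lower the luminescence signal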
Phospholipase A2 = Phospholipase A2 (Homo sapiens, UniProt P04054); type: functional;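 note: confirmatory dose-response counterscreen on phospholipase A2, testing hits that came from an ultra-high-throughput screen for ATG4B inhibitors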
Chain of Phospholipase A2 (P04054 whole entry): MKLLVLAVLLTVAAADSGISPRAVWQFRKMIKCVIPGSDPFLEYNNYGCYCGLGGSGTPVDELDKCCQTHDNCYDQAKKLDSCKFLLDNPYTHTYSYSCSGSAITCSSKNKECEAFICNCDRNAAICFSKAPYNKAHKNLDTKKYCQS

Cysteine protease ATG4B = target: T5, Cysteine protease ATG4B (Homo sapiens, UniProt Q9Y4P1); type: functional;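 note: Fluorescence-based dose-response confirmation assay measuring inhibition of ATG4B activity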
T5 sequence (Q9Y4P1 whole entry): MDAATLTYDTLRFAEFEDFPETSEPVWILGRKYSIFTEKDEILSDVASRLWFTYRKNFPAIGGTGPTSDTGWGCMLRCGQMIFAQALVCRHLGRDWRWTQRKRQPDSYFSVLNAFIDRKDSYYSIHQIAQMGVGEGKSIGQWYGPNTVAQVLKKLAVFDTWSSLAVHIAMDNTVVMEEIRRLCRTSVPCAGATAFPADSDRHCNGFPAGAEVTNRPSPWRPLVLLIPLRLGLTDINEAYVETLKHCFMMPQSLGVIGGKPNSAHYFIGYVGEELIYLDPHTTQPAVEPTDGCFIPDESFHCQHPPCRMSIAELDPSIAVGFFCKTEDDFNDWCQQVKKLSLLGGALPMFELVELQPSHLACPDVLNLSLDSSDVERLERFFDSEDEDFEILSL

[25] = Luminescence Cell-Based Dose Retest to Confirm Inhibitors of Cancer Stem Cells. [Related pubchem assays (depositor defined):AID2717, AID2721]; type: functional; conditions: Homo sapiens
Cytochrome P450 2C9 = Cytochrome P450 2C9 (Homo sapiens, UniProt P11712)
Chain of Cytochrome P450 2C9 (P11712 whole entry): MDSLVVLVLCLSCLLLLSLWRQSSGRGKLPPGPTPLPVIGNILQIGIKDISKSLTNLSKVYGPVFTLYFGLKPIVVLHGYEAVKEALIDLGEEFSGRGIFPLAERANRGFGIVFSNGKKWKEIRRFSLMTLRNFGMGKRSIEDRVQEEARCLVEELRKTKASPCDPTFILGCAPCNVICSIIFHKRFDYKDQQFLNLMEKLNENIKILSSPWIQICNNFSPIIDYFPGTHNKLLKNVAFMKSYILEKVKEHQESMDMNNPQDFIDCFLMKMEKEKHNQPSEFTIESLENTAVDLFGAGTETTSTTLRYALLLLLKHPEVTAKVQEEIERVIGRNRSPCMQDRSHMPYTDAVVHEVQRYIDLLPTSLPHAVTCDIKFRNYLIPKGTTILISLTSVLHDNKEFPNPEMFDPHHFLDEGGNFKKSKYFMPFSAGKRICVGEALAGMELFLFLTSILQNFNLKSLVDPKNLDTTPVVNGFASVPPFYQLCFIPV

Cytochrome P450 1A2 = target: T6, Cytochrome P450 1A2 (Homo sapiens, UniProt P05177);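 note: PubChem cytochrome P450 panel assay, CYP1A2 panel member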
T6 sequence (P05177 whole entry): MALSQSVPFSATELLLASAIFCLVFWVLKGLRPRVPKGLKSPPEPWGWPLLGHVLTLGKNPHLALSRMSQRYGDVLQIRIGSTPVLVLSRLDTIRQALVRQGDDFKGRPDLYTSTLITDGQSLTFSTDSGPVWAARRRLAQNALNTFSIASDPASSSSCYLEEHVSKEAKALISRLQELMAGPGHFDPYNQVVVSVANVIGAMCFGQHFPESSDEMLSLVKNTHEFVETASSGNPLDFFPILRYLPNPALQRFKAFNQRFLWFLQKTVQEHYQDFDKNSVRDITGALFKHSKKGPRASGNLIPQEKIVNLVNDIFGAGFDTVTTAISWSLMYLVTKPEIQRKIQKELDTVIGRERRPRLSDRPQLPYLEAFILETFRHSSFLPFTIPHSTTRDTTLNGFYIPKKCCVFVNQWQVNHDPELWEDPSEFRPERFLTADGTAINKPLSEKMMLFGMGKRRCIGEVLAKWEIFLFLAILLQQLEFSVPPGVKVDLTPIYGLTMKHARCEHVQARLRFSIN

c1cnc(N2CCN(Cc3c[nH]c4ccccc34)CC2)nc1
AC50 (INS1): 4.57 µM (active)
EC50 [1]: 0.424 µM (active)
EC50 (Mu-type opioid receptor): 92.5 µM (inactive)

COc1ccc(C2c3c(-c4ccccc4O)n[nH]c3C(=O)N2CCc2ccc(OC)c(OC)c2)cc1 (stereo not drawn)
AC50 [2]: 3.07 µM (active)
AC50 [3]: 2.44 µM (active)
AC50 [4]: 1.94 µM (active)
AC50 [5]: 1.17 µM (active)
AC50 [6]: 65.5 µM (active)

CCCN1CN(CCc2ccccc2)CN=C1S
EC50 (cells [7]): > 29.9 µM (inactive)
IC50 (cells [8]): > 29.9 µM (inactive)

NNC(=O)c1oc2nc(-c3cccs3)cc(-c3ccco3)c2c1N
AC50 [9]: 16.6 µM (active)

O=C(CSc1nnc(NC(=O)c2cc(Br)ccc2Cl)s1)NCC1CCCO1 (stereo not drawn)
IC50 (Beta-lactamase [10]): > 59.6 µM (inactive)
IC50 (Beta-lactamase [11]): > 59.6 µM (inactive)
IC50 (Beta-lactamase [12]): > 59.6 µM (inactive)

COC(=O)c1ccc2nc(-c3cccc(N)c3)cn2c1
AC50 [13]: 3.22 µM (active)
AC50 (HEK293): 2.21 µM (active)
AC50 [14]: 2.62 µM (active)
IC50 [15]: > 0.834 µM (active)
EC50 [16]: > 60 µM (not active)
EC50 [17]: 6.89 µM (active)
IC50 (cells [18]): > 67.5 µM (inactive)
EC50 [19]: > 60 µM (not active)

Cc1n[nH]c(O)c1C(c1ccc(-c2ccc(Cl)cc2)o1)c1c(C)n[nH]c1O
AC50 [20]: 8.22 µM (active)
IC50 [21]: 36.3 µM (active)
IC50 [22]: 12.9 µM (active)

O=C(c1ccc2ccccc2c1)N1CCN(S(=O)(=O)/C=C/c2ccccc2)CC1
IC50 (Beta-galactosidase): > 80 µM (inactive)
EC50 [23]: > 30 µM (not active)
EC50 [24]: 1.1 µM (active)

CCC(=O)NC(=S)Nc1cccc(Cl)c1N1CCCCC1
AC50 [2]: > 70 µM (inactive)
IC50 (Phospholipase A2): 3.78 µM (active)
AC50 [4]: 17.3 µM (active)
IC50 (Cysteine protease ATG4B): 6.09 µM (active)
AC50 [5]: 38.5 µM (active)
AC50 [25]: 5.27 µM (active)
AC50 [6]: 36.5 µM (active)

CCCN1CCO[C@@H]2c3cc(O)ccc3OC[C@H]21
EC50 [1]: 0.0216 µM (active)
EC50 (Mu-type opioid receptor): 92.5 µM (inactive)

CCOC(=O)c1[nH]c(C(=O)O)c(CCC(=O)OC)c1C
AC50 (Cytochrome P450 2C9): 31.6 µM (inconclusive)
IC50 (Beta-lactamase [10]): 29.4 µM (inactive)
IC50 (Beta-lactamase [11]): > 59.6 µM (inactive)
IC50 (Beta-lactamase [12]): > 59.6 µM (inactive)
AC50 (Cytochrome P450 1A2): 0.251 µM (inconclusive)

O=C(c1cc2ccccc2o1)N1CCN(S(=O)(=O)/C=C/c2ccccc2)CC1
IC50 (Beta-galactosidase): > 80 µM (inactive)

Source: ChEMBL document CHEMBL1201862, “PubChem BioAssay data set” (2004)
